Experimental data reported in patent publication US20080213785A1, “Method of predicting a benefit of antioxidant therapy for prevention or treatment of vasclar disease in hyperglycemic individuals” (priority 2000, published 2008).
Marks after values point to notes of the source that are not given here.

Columns and labels:
macrophages = test: Cholesterol efflux from macrophage by serum from treated diabetic mice; conditions: for effect on cholesterol efflux activity: Hp 2-2 diabetic mice
[1] = test system: patients at high risk of cardiovascular events; conditions: HOPE study as published; daily 400 IU for 4.5 years; not stratified by haptoglobin; cited from earlier work
[2] = test system: patients at high risk of cardiovascular events; test: HOPE study: CV outcomes with vitamin E or ramipril by haptoglobin phenotype; assay type: in vivo, human; conditions: for benefit of supplementation: unselected DM group
Excerpt: HOPE study and patient characteristics: The Heart Outcomes Prevention Evaluation (HOPE) study was designed to test the hypotheses that two preventive intervention strategies, namely angiotensin-converting enzyme (ACE) inhibition or vitamin E, would improve morbidity and mortality in patients at high risk of cardiovascular events compared with placebo. Patients were included in the study who were considered to be at high risk of future fatal or non-fatal cardiovascular events, by virtue of their age (>55 years), existing or previous cardiovascular disease, or diabetes. Diabetics had at least one other risk factor, either known vascular disease or other factors such as cigarette smoking, high cholesterol or hypertension. Ramipril or placebo was added to concomitant medication, which included, in a substantial proportion of patients, antihypertensive drugs (excluding ACE-I), lipid-lowering agents or aspirin. The HOPE study design and protocols have been previously described in detail (see, for example, The Heart Outcomes Prevention Evaluation Study Investigators NE J Med, 2000; 342:154-60 and […] Angioten Aldost Sys 2000; 1:18-20). Briefly, the study population consisted over 9,451 patients at high risk of CVD (3,654 DM). […] Patients were followed for a mean of 4.5 years. The primary study outcome was the composite of non-fatal MI, stroke or cardiovascular death. For samples from the HOPE Study, haptoglobin phenotyping was performed from 10 ul of plasma by polyacrylamide gel electrophoresis according to established methods (Hochberg I et al Atherosclerosis 2002; 161:441-446). A signature banding pattern is obtained from individuals who are homozygous for the 1 allele (Hp 1-1), homozygous for the 2 allele (Hp 2-2) or who are heterozygous at the haptoglobin locus (Hp 2-1). We have established 100% concordance between the haptoglobin phenotype as determined from plasma and the haptoglobin genotype as determined from genomic DNA by the polymerase chain reaction (Koch W, et al Clin Chem 2002; 277:13635-40). An unambiguous haptoglobin phenotype was obtained on greater than 99.6% of all samples assayed. Haptoglobin phenotyping was performed with no knowledge of the patients clinical or treatment status. All analyses of the HOPE Study data were carried out using SAS 6.02. Baseline characteristics of patients according to haptoglobin were compared by t tests or .chi^2 tests as appropriate. […] Patient characteristics of HOPE samples undergoing haptoglobin phenotyping: Haptoglobin phenotype was obtained on 3176 patients (1078 diabetics) from the original HOPE cohort for whom plasma was originally archived. These patients represented a randomly selected consecutive series of patients from the entire HOPE cohort.

[3] = value for 1 mg; cited from earlier work
[4] = CVD outcomes and Vitamin C supplementation (data not shown); assay type: in vivo, human; conditions: unselected samples or Diabetic patients
[5] = serum from diabetic Hp 1-1 mice treated orally 28 days (vitamin E 1 mg/kg/day; GPx mimetic 2 mg/kg/day)
[6] = serum from diabetic Hp 2-2 mice treated orally 28 days (vitamin E 1 mg/kg/day; GPx mimetic 2 mg/kg/day)
[7] = DM patients only, Hp 2-2, listed as vitamin E
[8] = DM patients with the other haptoglobin phenotypes (Hp 1-1 and Hp 2-1)
[9] = all patients, Hp 1-1, supplementation vs placebo
[10] = all patients, Hp 2-1, supplementation vs placebo
[11] = all patients, Hp 2-2, supplementation vs placebo
[12] = entire sample, regardless of haptoglobin type

CC(=O)Oc1c(C)c(C)c2c(c1C)CC[C@@](C)(CCC[C@H](C)CCC[C@H](C)CCCC(C)C)O2 [Vitamin E]
effect on cholesterol efflux activity (macrophages): increased | Tritiated cholesterol efflux from macrophages (macrophages; [5]): 16.1 +/− 0.5 % per hour | Tritiated cholesterol efflux from macrophages (macrophages; [6]): 15.3 +/− 0.7 % per hour | clinical benefit on cardiovascular (CV) outcomes [1]: failed to demonstrate any clinical benefit | Relative Risk Ratio, CV death (95% CI) ([2]; DM patients only, Hp 1-1): 0.64 | Relative Risk Ratio, MI (95% CI) ([2]; DM patients only, Hp 1-1): 0.83 | Relative Risk Ratio, Primary (non-fatal MI, stroke or cardiovascular death) (95% CI) ([2]; DM patients only, Hp 1-1): 0.84 | Relative Risk Ratio, Stroke (95% CI) ([2]; DM patients only, Hp 1-1): 2.24 | Relative Risk Ratio, CV death (95% CI) ([2]; DM patients only, Hp 2-1): 1.0(0.53-1.93) | Relative Risk Ratio, MI (95% CI) ([2]; DM patients only, Hp 2-1): 0.99 | Relative Risk Ratio, Primary (non-fatal MI, stroke or cardiovascular death) (95% CI) ([2]; DM patients only, Hp 2-1): 1.08 | Relative Risk Ratio, Stroke (95% CI) ([2]; DM patients only, Hp 2-1): 0.99(0.45-2.18) | Relative Risk Ratio, CV death (95% CI) ([2]; DM patients only, Hp 2-2): 0.45 (0.23-0.90) * | Relative Risk Ratio, MI (95% CI) ([2]; DM patients only, Hp 2-2): 0.57 | Relative Risk Ratio, Primary (non-fatal MI, stroke or cardiovascular death) (95% CI) ([2]; DM patients only, Hp 2-2): 0.70(0.45-1.10) | Relative Risk Ratio, Stroke (95% CI) ([2]; DM patients only, Hp 2-2): 1.15 | Relative Risk Ratio, CV death (95% CI) [2, 7]: 0.45 | Relative Risk Ratio, MI (95% CI) [2, 7]: 0.57 | benefit for any of the primary CV outcomes [2, 8]: no significant benefit | Relative Risk Ratio, CV death (95% CI) ([2]; all patients, Hp 1-1): 1.10 | Relative Risk Ratio, MI (95% CI) ([2]; all patients, Hp 1-1): 0.79 | Relative Risk Ratio, Stroke (95% CI) ([2]; all patients, Hp 1-1): 1.50 | Relative Risk Ratio, Primary (non-fatal MI, stroke or cardiovascular death) (95% CI) [2, 9]: 0.97(0.63-1.50) | Relative Risk Ratio, CV death (95% CI) ([2]; all patients, Hp 2-1): 1.07(0.69-1.64) | Relative Risk Ratio, MI (95% CI) ([2]; all patients, Hp 2-1): 1.02(0.75-1.38) | Relative Risk Ratio, Stroke (95% CI) ([2]; all patients, Hp 2-1): 0.92(0.53-1.60) | Relative Risk Ratio, Primary (non-fatal MI, stroke or cardiovascular death) (95% CI) [2, 10]: 0.96(0.74-1.25) | Relative Risk Ratio, CV death (95% CI) ([2]; all patients, Hp 2-2): 0.75 | Relative Risk Ratio, MI (95% CI) ([2]; all patients, Hp 2-2): 0.94(0.68-1.30) | Relative Risk Ratio, Stroke (95% CI) ([2]; all patients, Hp 2-2): 0.85 | Relative Risk Ratio, Primary (non-fatal MI, stroke or cardiovascular death) (95% CI) [2, 11]: 0.92 | benefit for any of the primary CV outcomes [2, 12]: no significant benefit | benefit of supplementation [2]: no significant benefit

Cc1c(C)c2c(c(C)c1O)CCC(C)(CCCC(C)CCCC(C)CCCC(C)C)O2 (racemic) [all-rac-.alpha-tocopherol]
specific activity [3]: 1.10 IU per milligram

CC1(C)CN[Se]c2ccccc21 [GPx mimetic]
effect on cholesterol efflux activity (macrophages): increased | Tritiated cholesterol efflux from macrophages (macrophages; [5]): 14.6 +/− 0.4 % per hour | Tritiated cholesterol efflux from macrophages (macrophages; [6]): 14.0 +/− 0.5 % per hour

O=C1O[C@H]([C@@H](O)CO)C(O)=C1O [Vitamin C]
correlation between CVD outcomes and supplementation [4]: no correlation

Cc1c(C)c2c(c(C)c1O)CC[C@@](C)(CCC[C@H](C)CCC[C@H](C)CCCC(C)C)O2 [RRR-alpha-tocopherol]
specific activity [3]: 1.49 IU per milligram

CC(=O)Oc1c(C)c(C)c2c(c1C)CCC(C)(CCCC(C)CCCC(C)CCCC(C)C)O2 (racemic) [all-rac-α-tocopherol acetate]
specific activity [3]: 1.00 IU per milligram

CCOC(=O)[C@H](CCc1ccccc1)N[C@@H](C)C(=O)N1[C@H](C(=O)O)C[C@@H]2CCC[C@@H]21 [Ramipril, ramipril]
Relative Risk Ratio, Primary (non-fatal MI, stroke or cardiovascular death) (95% CI) ([2]; DM patients only, Hp 1-1): 0.78(0.35-1.75) | Relative Risk Ratio, Primary (non-fatal MI, stroke or cardiovascular death) (95% CI) ([2]; DM patients only, Hp 2-1): 0.97 | Relative Risk Ratio, Primary (non-fatal MI, stroke or cardiovascular death) (95% CI) ([2]; DM patients only, Hp 2-2): 0.57 | Relative Risk Ratio, Primary (non-fatal MI, stroke or cardiovascular death) (95% CI) ([2]; DM patients only, Hp 2-2, listed as ramipril): 0.57 | benefit for any of the primary CV outcomes [2, 8]: no benefit | Relative Risk Ratio, Primary (non-fatal MI, stroke or cardiovascular death) (95% CI) [2, 9]: 0.74(0.47-1.17) | Relative Risk Ratio, Primary (non-fatal MI, stroke or cardiovascular death) (95% CI) [2, 10]: 0.81 (0.62-1.07) | Relative Risk Ratio, Primary (non-fatal MI, stroke or cardiovascular death) (95% CI) [2, 11]: 0.76 | composite endpoint (non-fatal MI, stroke or cardiovascular death) ([2]; diabetic individuals in the HOPE study having a Hp 2-2 phenotype): statistically significant reduction | benefit for any of the primary CV outcomes [2, 12]: no significant benefit | benefit of supplementation [2]: no significant benefit

CC(=O)Oc1c(C)c(C)c2c(c1C)CC[C@@](C)(CCC[C@H](C)CCC[C@H](C)CCCC(C)C)O2 [RRR-.alpha-tocopherol acetate]
specific activity [3]: 1.36 IU per milligram
